Here are results for two molecules from article PMC8213057, “Targeting ALK2: An Open Science Approach to Developing Therapeutics for the Treatment of Diffuse Intrinsic Pontine Glioma” (Journal of Medicinal Chemistry, 2020).

The target of test [1] is T1, MYLK4 (Homo sapiens, UniProt Q86YV6).
T1 sequence (Q86YV6 1-388): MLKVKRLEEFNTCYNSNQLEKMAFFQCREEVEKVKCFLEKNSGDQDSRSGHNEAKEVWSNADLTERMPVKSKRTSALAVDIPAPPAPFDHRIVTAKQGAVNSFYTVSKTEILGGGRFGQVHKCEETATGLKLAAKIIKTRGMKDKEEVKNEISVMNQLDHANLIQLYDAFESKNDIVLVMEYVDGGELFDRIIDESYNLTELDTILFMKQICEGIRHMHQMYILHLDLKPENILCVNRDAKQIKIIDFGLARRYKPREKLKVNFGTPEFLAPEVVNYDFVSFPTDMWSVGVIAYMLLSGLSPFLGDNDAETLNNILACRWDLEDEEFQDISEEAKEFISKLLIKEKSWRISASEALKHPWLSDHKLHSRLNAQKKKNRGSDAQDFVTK
The test is described as follows: biochemical. The conditions noted are these: read-out: % enzyme activity, 1 μM; Run 1, Run 2.

Test [2] has as its target T2, GRK3 (Homo sapiens, UniProt P35626).
T2 sequence (P35626 1-688): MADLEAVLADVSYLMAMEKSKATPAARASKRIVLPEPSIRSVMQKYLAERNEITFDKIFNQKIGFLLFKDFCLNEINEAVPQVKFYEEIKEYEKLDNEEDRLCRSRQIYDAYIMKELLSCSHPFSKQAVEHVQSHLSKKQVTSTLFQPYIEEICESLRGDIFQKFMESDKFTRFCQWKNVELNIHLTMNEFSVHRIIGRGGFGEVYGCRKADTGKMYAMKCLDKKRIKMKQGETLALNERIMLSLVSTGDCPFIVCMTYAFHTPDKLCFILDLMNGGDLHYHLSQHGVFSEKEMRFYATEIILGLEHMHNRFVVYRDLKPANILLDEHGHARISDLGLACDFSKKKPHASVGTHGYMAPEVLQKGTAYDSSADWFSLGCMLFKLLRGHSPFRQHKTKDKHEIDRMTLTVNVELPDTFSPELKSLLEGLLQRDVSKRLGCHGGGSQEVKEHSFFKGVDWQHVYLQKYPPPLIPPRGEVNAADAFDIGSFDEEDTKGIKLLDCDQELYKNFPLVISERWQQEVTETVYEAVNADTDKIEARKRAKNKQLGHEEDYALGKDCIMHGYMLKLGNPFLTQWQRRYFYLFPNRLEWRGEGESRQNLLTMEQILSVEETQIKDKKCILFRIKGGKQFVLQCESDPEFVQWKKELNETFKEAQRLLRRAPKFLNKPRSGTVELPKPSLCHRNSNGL
The following applies: 1 μM; Run 1, Run 2.

The target of test [3] is MNK2 (Homo sapiens, UniProt Q9HBH9). The test is described as follows: biochemical. The conditions noted are these: read-out: % enzyme activity, 1 μM; Run 1, Run 2.
Chain of MNK2 (Q9HBH9 whole entry): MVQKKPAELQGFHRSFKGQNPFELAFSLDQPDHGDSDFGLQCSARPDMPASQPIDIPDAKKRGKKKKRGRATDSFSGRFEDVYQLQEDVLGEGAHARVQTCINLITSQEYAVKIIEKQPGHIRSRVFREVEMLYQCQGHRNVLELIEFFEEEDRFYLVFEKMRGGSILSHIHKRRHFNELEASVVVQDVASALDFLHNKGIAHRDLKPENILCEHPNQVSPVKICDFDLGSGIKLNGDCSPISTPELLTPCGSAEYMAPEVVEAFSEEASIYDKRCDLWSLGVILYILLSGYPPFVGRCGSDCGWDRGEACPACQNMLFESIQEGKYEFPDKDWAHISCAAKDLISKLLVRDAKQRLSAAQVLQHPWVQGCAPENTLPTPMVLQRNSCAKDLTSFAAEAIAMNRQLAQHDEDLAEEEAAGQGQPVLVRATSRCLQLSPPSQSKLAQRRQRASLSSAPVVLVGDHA
In test [4] the target is T3, DLK/MAP3K12 (Homo sapiens, UniProt Q12852).
T3 sequence (Q12852 1-859): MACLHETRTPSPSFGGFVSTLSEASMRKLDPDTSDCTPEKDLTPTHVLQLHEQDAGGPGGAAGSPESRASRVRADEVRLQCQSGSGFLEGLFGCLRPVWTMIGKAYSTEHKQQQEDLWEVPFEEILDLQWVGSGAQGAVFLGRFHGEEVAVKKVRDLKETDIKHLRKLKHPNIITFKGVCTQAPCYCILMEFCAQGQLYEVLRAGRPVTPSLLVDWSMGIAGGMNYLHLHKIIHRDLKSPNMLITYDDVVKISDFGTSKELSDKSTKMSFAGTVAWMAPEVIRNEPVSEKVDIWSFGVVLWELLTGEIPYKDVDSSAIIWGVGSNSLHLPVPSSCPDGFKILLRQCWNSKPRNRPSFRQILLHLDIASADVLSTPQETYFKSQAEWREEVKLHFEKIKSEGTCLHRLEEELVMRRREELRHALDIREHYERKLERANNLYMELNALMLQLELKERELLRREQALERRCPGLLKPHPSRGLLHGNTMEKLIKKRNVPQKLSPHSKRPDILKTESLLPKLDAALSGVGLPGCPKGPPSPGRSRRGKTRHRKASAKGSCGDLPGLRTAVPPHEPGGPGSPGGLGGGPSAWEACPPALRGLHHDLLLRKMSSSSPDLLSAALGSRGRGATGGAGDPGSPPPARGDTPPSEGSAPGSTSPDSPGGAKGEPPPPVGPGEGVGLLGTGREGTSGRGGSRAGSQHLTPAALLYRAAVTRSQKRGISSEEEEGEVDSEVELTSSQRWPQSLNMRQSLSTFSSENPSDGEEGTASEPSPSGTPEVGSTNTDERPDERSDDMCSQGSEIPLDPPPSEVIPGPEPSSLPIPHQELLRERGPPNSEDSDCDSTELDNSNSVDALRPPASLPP
The test can be described thus: biochemical. The conditions noted are these: read-out: % enzyme activity, 1 μM; Run 1, Run 2.

In test [5] the target is T4, MKK6 (Homo sapiens, UniProt P52564).
T4 sequence (P52564 1-334): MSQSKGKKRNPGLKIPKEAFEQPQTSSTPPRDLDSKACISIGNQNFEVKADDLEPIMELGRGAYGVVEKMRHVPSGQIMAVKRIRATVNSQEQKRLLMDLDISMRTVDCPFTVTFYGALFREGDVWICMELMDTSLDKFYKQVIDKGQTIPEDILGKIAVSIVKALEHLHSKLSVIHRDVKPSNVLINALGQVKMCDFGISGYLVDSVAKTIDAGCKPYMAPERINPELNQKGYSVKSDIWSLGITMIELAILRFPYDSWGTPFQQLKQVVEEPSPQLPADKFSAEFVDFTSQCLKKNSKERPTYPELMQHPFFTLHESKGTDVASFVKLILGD
The following applies: 1 μM; Run 1, Run 2.

Test [6] deals with SIK3 (Homo sapiens, UniProt Q9Y2K2). The test is described as follows: biochemical. The following applies: read-out: % enzyme activity, 1 μM; Run 1, Run 2.
Chain of SIK3 (Q9Y2K2 whole entry): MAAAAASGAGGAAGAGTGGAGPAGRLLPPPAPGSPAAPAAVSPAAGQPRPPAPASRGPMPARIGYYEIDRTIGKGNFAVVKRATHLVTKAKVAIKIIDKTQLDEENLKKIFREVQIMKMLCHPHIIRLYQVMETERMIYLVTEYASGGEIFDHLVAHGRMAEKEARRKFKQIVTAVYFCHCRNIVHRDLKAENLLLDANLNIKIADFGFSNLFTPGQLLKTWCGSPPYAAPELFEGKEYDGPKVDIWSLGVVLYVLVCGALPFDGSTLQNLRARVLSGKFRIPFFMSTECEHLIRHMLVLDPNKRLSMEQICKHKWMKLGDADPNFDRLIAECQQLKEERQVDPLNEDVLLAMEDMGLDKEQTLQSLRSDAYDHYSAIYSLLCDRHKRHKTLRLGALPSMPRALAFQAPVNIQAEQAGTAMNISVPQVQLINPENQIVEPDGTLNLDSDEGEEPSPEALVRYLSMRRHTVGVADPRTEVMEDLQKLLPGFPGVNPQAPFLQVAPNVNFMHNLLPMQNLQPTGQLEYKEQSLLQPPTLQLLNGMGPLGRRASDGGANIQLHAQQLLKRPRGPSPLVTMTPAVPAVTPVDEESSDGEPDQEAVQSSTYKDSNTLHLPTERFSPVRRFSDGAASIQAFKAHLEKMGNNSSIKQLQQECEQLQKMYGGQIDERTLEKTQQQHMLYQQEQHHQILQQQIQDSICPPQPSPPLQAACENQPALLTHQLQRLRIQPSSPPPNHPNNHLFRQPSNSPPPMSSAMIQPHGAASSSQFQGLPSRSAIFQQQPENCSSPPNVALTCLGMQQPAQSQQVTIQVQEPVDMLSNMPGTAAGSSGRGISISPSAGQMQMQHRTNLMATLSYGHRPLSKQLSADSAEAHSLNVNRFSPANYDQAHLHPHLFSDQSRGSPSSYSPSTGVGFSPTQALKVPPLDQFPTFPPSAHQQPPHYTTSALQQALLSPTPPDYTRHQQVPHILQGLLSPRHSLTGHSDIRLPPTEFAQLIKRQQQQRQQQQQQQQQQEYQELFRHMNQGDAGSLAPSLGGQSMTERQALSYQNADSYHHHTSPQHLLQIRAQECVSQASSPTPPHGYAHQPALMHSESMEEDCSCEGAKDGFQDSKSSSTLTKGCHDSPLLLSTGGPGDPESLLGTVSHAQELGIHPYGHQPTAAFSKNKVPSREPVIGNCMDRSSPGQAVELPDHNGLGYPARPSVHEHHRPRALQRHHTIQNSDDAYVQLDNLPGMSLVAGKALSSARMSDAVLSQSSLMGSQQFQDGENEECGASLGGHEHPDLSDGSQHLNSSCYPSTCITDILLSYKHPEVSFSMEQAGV

As to `COc1cc(-c2cncc(-c3ccc(N4C[C@@H](C)N(C)[C@@H](C)C4)cc3)c2C)cc(F)c1C(N)=O` [Compound 26c, 2-Fluoro-6-methoxy-4-(4-methyl-5-(4-((3R,5S)-3,4,5-trimethylpiperazin-1-yl)phenyl)pyridin-3-yl)benzamide], the remaining activity at 1 µM amounted to 104% in test [1], 70.8% in test [3], 99.2% in test [4] and 89% in test [6]. Further, the “% enzyme activity” value in test [2] turned out to be 95.20%; in test [5], 79.33%.
As for `COc1cc(-c2cncc(-c3ccc(N4CCN(C)CC4)cc3)c2C)cc(F)c1C(N)=O` [Compound 26a, 2-Fluoro-6-methoxy-4-(4-methyl-5-(4-(4-methylpiperazin-1-yl)phenyl)pyridin-3-yl)benzamide], the remaining activity at 1 µM in test [1] amounted to 97.7%; in test [3] it was 48.2%; in test [4], 93.7%; in test [6], 59.5%. Also, the “% enzyme activity” value amounted to 94.07% in test [2] and 80.71% in test [5].
